Results as given in patent US20250034165A1, “COMPOUND CONTAINING CYCLOALKYL OR HALOALKYL” (CHIA TAI TIANQING PHARMACEUTICAL GROUP CO., LTD., priority 2021, published 2025).
Where two headings read alike, the source gives them in different places.

Legend:
[1] = biological target: EGFR (L858R/T790M/C797S) (Homo sapiens (Human), UniProt P00533, C797S/L858R/T790M); assay: Inhibitory activity for EGFR (L858R/T790M/C797S) kinase; assay type: biochemical; settings: ATP 5 μM
Procedure: (§1) A 50 ng/μL EGFR (L858R/T790M/C797S, BPS) stock solution was diluted with a kinase buffer (50 mM HEPES, 10 mM MgCl2, 2 mM DTT, 1 mM EGTA, 0.01% Tween 20), and 6 μL of 1.67× working solution at 0.00167 ng/μL (final concentration: 0.001 ng/μL) was added to each well. Different compounds dissolved in DMSO were added to wells using a nanoliter pipettor, resulting in the final concentrations of the compounds of 10 nM to 0.0024 nM (4-fold gradient, 7 concentrations in total), and blank control wells (without enzyme) and negative control wells (with enzyme, plus vehicle DMSO) were set, 2 replicate wells for each concentration. After enzyme was reacted with the compound or vehicle for 30 min, 5×ATP at 25 μM (final concentration: 5 μM, Sigma) prepared with a kinase buffer was mixed with 5× substrate at 0.5 μM (final concentration: 0.1 μM, ULight-poly GT, PerkinElmer) at a ratio of 1:1 (v:v), and the mixture was added to each well at 4 μL/well. After being sealed with a film, the plate was incubated at room temperature for 2 h, and then 5 μL of 4×EDTA at 40 mM (final concentration: 10 mM) was added to each well. After the plate was incubated for 5 min at room temperature, 5 μL of 4× detection reagent at 8 nM (final concentration: 2 nM, Eu-anti-phospho-tyrosine antibody, PerkinElmer) was added to each well. After being incubated at room temperature for 1 h, the plate was read using a PerkinElmer Envision multi-mode microplate reader (excitation: 320 nm, emission: 665 nm), and IC50 was calculated by four-parameter fitting.

[2] = biological target: EGFR (L858R/T790M) (Homo sapiens (Human), UniProt P00533, L858R/T790M); assay: Inhibitory activity for EGFR (L858R/T790M) kinase; assay type: biochemical; settings: ATP 5 μM
EGFR (L858R/T790M), sequence (P00533 25-1210 T790M/L858R): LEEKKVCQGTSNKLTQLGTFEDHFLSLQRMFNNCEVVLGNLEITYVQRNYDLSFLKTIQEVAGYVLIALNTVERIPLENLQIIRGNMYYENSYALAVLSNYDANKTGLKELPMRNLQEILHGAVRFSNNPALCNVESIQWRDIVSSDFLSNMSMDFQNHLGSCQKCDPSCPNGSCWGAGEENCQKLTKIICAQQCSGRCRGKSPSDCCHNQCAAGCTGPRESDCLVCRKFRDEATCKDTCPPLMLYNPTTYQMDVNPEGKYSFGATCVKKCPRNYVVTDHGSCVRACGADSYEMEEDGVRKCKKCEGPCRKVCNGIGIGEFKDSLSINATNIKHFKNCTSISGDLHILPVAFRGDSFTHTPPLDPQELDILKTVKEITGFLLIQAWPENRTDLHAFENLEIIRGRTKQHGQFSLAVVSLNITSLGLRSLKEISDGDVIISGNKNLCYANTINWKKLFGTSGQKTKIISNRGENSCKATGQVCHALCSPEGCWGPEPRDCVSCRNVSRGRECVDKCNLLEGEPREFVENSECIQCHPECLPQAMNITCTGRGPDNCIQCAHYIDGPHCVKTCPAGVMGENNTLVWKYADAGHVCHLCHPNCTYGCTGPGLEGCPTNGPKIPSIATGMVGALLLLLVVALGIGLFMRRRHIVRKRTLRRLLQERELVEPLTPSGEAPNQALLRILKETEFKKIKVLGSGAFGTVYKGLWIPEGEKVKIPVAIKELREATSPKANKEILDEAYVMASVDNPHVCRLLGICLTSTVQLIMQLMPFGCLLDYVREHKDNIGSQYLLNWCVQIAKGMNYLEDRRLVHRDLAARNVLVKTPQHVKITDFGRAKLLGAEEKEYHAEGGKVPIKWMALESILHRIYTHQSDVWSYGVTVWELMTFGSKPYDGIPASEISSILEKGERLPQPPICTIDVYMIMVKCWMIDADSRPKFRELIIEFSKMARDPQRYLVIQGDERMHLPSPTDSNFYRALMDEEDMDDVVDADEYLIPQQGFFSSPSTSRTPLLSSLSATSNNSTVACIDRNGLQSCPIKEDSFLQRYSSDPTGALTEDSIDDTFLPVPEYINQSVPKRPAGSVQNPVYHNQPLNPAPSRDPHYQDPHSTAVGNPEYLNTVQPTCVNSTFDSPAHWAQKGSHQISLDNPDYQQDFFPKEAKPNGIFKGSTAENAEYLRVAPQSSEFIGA
Procedure: as §1, with “(L858R/T790M, Carna)” for “(L858R/T790M/C797S, BPS)”, “0.004175” for “0.00167”, “0.0025” for “0.001”

[3] = test system: BAF3-EGFR (L858R/T790M/C797S) cells; assay: Inhibition of proliferation of BAF3-EGFR (L858R/T790M/C797S) cells, CCK-8; assay type: cell-based; settings: 72 h, read-out: BAF3(EGFR T790M L858R C797S) cell inhibitory activity IC50
How it was run: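 BaF3 EGFR L858R/T790M/C797S cells seeded at 1.5×10^5 cells/mL in RPMI + 10% FBS, 37 °C, compound added after overnight, duplicates. Viability by CCK-8; % inhibition vs untreated and blank, IC50 by four-parameter fit.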

[4] = test system: BAF3-EGFR (del19/T790M/C797S) cells; assay: Inhibition of proliferation of BAF3-EGFR (Del19/T790M/C797S) cells, CCK-8; assay type: cell-based; settings: 72 h, read-out: BAF3(EGFR T790M Del19 C797S) cell inhibitory activity IC50
How it was run: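 Cells seeded at 1.0×10^5 cells/mL in RPMI + 10% FBS, cultured overnight at 37° C, 5% CO2, then compound added in duplicate wells, with untreated cells as negative control. Inhibition rate calculated against negative-control and blank means. IC50 obtained from four-parameter fit of inhibition versus log concentration.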

[5] = test system: NCI-H1975(L858R T790M); assay: Nude mouse subcutaneous xenograft tumor model of NCI-H1975 cells; assay type: in vivo, nude mice; settings: once a day; for Tumor growth inhibition % (tumor weight, d 18) / Tumor growth inhibition % (volume, d 15): 17 days
Description: Evaluation on drug effect on nude mouse subcutaneous xenograft tumor model of NCI-H1975 cells: NCI-H1975 cells were inoculated subcutaneously in the right axilla of SPF-grade female nude mice (source: Jiangsu Huachuang Sino Pharmaceutical Technology Co., Ltd.) at 1×10^6 cells/mouse. When the mean tumor volume reached about 200 mm^3, the animals were grouped.
The day of grouping was defined as day 0, and intragastric administration was started on day 0 and performed once a day. The tumor volume was measured 2-3 times a week, meanwhile, the mice were weighed and the data were recorded; the general behavior of the mice was observed and recorded every day. After the experiment was completed, the tumors were removed, weighed, and photographed.
Tumor volume TV (mm^3)=½×(a×b^2),
Relative tumor volume RTV=TVt/TV0,
Relative tumor proliferation rate T/C (%)=(TRTV/CRTV)×100%,
Tumor growth inhibition rate TGI (%)=(1−TW/TW0)×100%;

EGFR (L858R/T790M/C797S), sequence (P00533 25-1210 T790M/C797S/L858R): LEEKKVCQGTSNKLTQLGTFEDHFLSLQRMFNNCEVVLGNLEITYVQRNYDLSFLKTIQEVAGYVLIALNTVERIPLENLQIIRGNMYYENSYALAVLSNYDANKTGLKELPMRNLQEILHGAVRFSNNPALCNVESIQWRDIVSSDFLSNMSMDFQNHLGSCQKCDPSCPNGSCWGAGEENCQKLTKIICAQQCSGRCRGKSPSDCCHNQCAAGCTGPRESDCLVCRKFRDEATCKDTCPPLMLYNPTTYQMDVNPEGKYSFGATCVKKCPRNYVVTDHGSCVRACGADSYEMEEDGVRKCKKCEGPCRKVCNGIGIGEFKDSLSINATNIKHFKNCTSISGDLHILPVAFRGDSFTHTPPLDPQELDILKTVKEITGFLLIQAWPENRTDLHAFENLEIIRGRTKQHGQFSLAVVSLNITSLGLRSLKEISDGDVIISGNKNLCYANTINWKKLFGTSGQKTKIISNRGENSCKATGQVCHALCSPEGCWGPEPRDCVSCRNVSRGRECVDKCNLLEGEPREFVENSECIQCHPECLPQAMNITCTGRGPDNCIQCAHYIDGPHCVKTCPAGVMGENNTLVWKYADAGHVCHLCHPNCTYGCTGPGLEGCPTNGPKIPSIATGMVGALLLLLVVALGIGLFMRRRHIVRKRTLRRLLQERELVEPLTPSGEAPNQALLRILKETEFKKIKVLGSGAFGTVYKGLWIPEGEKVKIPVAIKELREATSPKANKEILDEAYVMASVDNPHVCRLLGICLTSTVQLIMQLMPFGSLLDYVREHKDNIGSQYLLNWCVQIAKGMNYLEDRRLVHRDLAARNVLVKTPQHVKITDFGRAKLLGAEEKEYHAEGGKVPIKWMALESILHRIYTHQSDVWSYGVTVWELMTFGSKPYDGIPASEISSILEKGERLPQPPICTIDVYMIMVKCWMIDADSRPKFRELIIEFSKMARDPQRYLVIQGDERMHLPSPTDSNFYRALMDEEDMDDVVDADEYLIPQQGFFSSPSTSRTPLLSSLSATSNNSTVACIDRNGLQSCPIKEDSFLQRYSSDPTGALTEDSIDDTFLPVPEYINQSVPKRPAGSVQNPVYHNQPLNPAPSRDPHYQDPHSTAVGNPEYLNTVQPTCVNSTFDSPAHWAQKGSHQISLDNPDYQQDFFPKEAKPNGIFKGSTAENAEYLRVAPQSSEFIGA

SMILES | IC50 [1] [nM] | IC50 [2] [nM] | IC50 [3] [nM] | IC50 [4] [nM] | IC50 ([3]; Ba/F3 EGFR) [nM] | further results
C[C@H](Nc1ccc2c(c1)N/C1=N\C(=O)c3cc(F)nc(c3)-c3cnn(C)c3OCCC[C@@H](C3CC3)CN12)C(F)(F)F [Example 9] | 0.5 | 0.45 | – | – | – | –
Cc1cc2cc(n1)-c1cnn(C)c1OCCC[C@@H](C1CC1)CN1/C(=N/C2=O)Nc2ccc(C=CCCN(C)C)cc21 [Example 24] | 0.02 | 0.031 | < 5 | – | – | –
Cc1cc2cc(n1)-c1cnn(C)c1OCCC[C@@H](C1CC1)CN1/C(=N/C2=O)Nc2cc(N[C@H]3CC[C@H](N(C)C)CC3)ccc21 [Example 25] | 0.014 | 0.021 | < 5 | < 1 | – | Tumor growth inhibition % (tumor weight, d 18) ([5]; 5 mpk (i.g)): 31.4% (tumor; Tumor growth inhibition % (volume, d 15) ([5]; 5 mpk (i.g)): 22.5% (volume,; Tumor growth inhibition % (tumor weight, d 18) ([5]; 10 mpk (i.g)): 75.8% (tumor; Tumor growth inhibition % (volume, d 15) ([5]; 10 mpk (i.g)): 72.5% (volume,
Cc1cc2cc(n1)-c1cnn(C)c1OCCC[C@@H](C1CC1)CN1/C(=N/C2=O)Nc2cc(N[C@H]3CC[C@@H](N(C)C)CC3)ccc21 [Example 26] | 0.017 | 0.025 | < 5 | < 1 | – | –
Cc1cc2cc(n1)-c1cnn(C)c1OCCC[C@@H](C1CC1)CN1/C(=N/C2=O)Nc2ccc(NCCN(C)C)cc21 [Example 28] | – | – | – | – | < 5 | IC50 ([4]; Ba/F3 EGFR-Del19/T790M/C797S): < 1 nM
Cc1cc2cc(n1)-c1cnn(C)c1OCCC[C@@H](C1CC1)CN1/C(=N/C2=O)Nc2cc(NC3(C)COC3)ccc21 [Example 29] | – | – | – | – | < 5 | IC50 ([4]; Ba/F3 EGFR-Del19/T790M/C797S): < 1 nM; Tumor growth inhibition % (tumor weight, d 18) ([5]; 5 mpk (i.g)): 41.7% (tumor weight,; Tumor growth inhibition % (volume, d 15) ([5]; 5 mpk (i.g)): 40.0% (volume, d 15); Tumor growth inhibition % (tumor weight, d 18) ([5]; 10 mpk (i.g)): 83.9% (tumor; Tumor growth inhibition % (volume, d 15) ([5]; 10 mpk (i.g)): 75.0% (volume,
Cc1cc2cc(n1)-c1cnn(C)c1OCCC[C@@H](C1CC1)CN1/C(=N/C2=O)Nc2cc(N[C@H](C)C3COC3)ccc21 [Example 39] | 0.027 | 0.04 | < 5 | < 1 | – | Tumor growth inhibition % (tumor weight, d 14) ([5]; 10 mpk (i.g), 14 days): 65.1% (tumor; Tumor growth inhibition % (volume, d 12) ([5]; 10 mpk (i.g), 14 days): 70.2%
Cc1cc2cc(n1)-c1cnn(C)c1OC[C@H](C1CC1)CCCn1c(nc3ccc(NC4COC4)cc31)NC2=O [Example 59] | 0.085 | 0.081 | – | – | – | –
Cc1cc2cc(n1)-c1cnn(C)c1OC[C@H](C1CC1)CCCn1c(nc3cc(NC4COC4)ccc31)NC2=O [Example 60] | 0.081 | 0.09 | – | – | – | –
Cc1cc2cc(n1)-c1cnn(C)c1OCCC[C@@H](C1CC1)CN1/C(=N/C2=O)Nc2cc(NC3(C(F)(F)F)COC3)ccc21 [Example 88] | 0.177 | 0.01 | – | – | < 5 | –
